In one series the target is rUGT1A1 (Homo sapiens, UniProt P22309). Description: Reaction phenotyping, rUGT1A1. To be noted: rUGT1A1, SN38 (0.5 µM).
For the next series, the system named is CYP2B6. Description: Enzyme induction assay, CYP2B6 activity in primary human hepatocytes. The following applies: CYP2B6 bupropion hydroxylation, DPV 303 nM, phenobarbital 1 mM.
Another series deals with T1, UGT1A1 (Homo sapiens, UniProt P22309).
T1 construct: from tissue
T1 sequence (P22309 26-533): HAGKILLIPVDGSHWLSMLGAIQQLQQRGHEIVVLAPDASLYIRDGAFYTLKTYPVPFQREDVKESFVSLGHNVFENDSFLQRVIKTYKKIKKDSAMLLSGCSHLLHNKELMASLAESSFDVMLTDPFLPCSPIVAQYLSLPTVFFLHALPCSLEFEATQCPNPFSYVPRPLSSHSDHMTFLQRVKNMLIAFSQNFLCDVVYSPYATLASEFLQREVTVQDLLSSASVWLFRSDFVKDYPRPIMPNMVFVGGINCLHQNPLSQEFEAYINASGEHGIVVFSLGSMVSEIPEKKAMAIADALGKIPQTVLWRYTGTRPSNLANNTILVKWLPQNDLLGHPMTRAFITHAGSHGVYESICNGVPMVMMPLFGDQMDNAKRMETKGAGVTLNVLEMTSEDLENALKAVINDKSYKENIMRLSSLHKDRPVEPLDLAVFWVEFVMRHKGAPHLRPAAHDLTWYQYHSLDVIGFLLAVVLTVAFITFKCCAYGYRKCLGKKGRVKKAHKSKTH
Description: Enzyme inhibition assay, UGT1A1. In kind it is in vitro ADME. To be noted: HLM; UGT1A1 SN38 glucuronidation; read-out: IC50.

Series [1] in a line: Reaction phenotyping, HLM with NADPH. The series is classed as in vitro ADME, human. The following applies: human, human liver microsomes, pH 7.4; HLM (Phase 1), Midazolam (1 µM); read-out: Known Substrate (% Remaining at 60 min).
Another series has as its target CYP3A4 (Homo sapiens, UniProt P08684). Description: Reaction phenotyping, rCYP3A4. To be noted: recombinant enzyme, pH 7.4.
In another series the target is CYP2C19 (Homo sapiens, UniProt P33261). Description: Enzyme inhibition assay, CYP2C19. The following applies: HLM; CYP2C19 S-mephenytoin 4′-hydroxylation.
Chain of CYP2C19 (P33261 whole entry): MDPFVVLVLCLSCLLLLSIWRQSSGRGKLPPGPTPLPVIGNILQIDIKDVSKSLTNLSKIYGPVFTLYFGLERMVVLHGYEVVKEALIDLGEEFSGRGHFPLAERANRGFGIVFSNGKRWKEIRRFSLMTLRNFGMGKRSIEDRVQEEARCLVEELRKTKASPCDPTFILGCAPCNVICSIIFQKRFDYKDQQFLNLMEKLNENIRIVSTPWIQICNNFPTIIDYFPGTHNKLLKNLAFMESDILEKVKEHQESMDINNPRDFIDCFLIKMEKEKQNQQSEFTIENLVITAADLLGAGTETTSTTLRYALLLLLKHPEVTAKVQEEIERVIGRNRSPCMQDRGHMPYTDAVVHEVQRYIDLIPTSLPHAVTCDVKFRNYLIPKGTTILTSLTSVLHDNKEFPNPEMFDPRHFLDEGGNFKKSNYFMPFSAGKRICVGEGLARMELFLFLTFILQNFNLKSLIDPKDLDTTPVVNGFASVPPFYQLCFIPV
A further series addresses T2, UGT1A9 (Homo sapiens, UniProt O60656).
T2 sequence (O60656 26-530): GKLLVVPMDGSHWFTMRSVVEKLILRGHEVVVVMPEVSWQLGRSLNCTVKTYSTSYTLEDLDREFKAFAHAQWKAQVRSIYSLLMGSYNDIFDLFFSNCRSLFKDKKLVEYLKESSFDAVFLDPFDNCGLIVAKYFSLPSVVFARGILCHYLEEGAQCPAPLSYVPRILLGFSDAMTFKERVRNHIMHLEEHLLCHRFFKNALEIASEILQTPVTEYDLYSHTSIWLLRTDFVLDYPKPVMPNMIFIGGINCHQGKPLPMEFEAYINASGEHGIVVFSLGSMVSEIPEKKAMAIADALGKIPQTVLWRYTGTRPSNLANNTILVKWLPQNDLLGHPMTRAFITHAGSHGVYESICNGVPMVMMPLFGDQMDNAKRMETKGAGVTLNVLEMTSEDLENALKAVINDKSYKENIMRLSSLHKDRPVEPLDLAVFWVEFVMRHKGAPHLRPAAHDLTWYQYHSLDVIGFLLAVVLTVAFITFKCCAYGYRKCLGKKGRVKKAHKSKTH
Description: Enzyme inhibition assay, UGT1A9. In kind it is in vitro ADME. The arrangement: from tissue. To be noted: HLM; UGT1A9 mycophenolic acid glucuronidation.

The target in the next series is T3, CYP1A1 (Homo sapiens, UniProt P04798).
T3 sequence (P04798 1-512): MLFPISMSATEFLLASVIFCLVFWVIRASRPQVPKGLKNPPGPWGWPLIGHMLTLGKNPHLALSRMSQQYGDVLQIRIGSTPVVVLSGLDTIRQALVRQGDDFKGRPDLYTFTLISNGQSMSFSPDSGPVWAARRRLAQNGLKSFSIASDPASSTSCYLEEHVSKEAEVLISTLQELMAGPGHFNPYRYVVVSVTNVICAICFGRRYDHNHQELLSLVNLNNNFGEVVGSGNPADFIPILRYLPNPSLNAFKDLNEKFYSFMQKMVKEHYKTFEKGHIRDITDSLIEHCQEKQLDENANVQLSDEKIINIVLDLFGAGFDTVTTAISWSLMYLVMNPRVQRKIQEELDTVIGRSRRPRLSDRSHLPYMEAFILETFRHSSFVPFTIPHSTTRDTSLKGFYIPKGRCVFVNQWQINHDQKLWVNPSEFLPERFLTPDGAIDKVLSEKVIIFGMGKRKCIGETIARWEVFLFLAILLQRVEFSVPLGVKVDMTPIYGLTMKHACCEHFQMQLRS
Description: Enzyme inhibition assay, CYP1A1. On the set-up: purchased Xenotech LLC. The following applies: Recombinant CYP1A1; phenacetin-O-deethylation. The series is classed as in vitro ADME.

Another series has as its target T4, UGT1A7 (Homo sapiens, UniProt Q9HAW7).
T4 sequence (Q9HAW7 26-530): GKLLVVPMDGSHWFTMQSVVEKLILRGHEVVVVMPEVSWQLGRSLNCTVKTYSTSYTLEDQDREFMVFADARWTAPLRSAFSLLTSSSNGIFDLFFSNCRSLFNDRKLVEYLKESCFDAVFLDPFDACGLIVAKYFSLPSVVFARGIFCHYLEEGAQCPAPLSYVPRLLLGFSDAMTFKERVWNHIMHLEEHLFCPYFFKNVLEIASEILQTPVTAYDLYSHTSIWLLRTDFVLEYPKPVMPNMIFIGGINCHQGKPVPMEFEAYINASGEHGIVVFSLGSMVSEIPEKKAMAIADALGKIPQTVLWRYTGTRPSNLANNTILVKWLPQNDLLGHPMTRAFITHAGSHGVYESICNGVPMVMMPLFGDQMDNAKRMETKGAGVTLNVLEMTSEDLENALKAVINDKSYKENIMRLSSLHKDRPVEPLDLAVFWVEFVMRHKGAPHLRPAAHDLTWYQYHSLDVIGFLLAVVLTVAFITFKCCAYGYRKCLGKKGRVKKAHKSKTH
Description: Enzyme inhibition assay, UGT1A7.

A further series addresses T5, UGT1A8 (Homo sapiens, UniProt Q9HAW9).
T5 sequence (Q9HAW9 26-530): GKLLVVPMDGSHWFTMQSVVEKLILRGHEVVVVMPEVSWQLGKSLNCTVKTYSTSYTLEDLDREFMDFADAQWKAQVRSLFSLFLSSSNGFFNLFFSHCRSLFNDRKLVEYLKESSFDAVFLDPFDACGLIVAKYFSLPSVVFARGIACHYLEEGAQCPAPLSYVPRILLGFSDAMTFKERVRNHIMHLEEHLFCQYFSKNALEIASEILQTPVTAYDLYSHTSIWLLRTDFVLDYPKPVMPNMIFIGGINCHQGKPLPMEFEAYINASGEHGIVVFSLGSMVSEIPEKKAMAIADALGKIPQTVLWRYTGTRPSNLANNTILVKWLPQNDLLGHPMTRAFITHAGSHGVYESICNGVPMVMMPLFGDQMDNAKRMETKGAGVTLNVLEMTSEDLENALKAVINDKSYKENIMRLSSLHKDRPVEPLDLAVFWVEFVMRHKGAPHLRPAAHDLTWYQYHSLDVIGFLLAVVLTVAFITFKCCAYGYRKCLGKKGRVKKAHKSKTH
Description: Enzyme inhibition assay, UGT1A8.

For a further series, the target named is T6, UGT1A4 (Homo sapiens, UniProt P22310).
T6 sequence (P22310 29-534): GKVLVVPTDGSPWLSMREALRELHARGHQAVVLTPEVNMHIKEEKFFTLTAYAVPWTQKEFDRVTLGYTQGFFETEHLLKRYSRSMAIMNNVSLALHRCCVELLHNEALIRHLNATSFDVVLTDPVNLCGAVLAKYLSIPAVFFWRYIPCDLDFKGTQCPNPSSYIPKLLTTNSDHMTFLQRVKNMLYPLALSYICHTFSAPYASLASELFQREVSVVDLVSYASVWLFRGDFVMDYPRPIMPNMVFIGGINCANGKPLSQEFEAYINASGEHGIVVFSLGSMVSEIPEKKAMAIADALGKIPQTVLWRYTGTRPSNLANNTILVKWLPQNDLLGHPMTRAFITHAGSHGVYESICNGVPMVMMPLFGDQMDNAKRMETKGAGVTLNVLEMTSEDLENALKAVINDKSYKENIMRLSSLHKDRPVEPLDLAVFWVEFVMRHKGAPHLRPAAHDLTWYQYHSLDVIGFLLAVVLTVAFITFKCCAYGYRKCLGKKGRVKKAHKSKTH
Description: Enzyme inhibition assay, UGT1A4.

The target in a further series is T7, UGT2B7 (Homo sapiens, UniProt P16662).
T7 sequence (P16662 24-529): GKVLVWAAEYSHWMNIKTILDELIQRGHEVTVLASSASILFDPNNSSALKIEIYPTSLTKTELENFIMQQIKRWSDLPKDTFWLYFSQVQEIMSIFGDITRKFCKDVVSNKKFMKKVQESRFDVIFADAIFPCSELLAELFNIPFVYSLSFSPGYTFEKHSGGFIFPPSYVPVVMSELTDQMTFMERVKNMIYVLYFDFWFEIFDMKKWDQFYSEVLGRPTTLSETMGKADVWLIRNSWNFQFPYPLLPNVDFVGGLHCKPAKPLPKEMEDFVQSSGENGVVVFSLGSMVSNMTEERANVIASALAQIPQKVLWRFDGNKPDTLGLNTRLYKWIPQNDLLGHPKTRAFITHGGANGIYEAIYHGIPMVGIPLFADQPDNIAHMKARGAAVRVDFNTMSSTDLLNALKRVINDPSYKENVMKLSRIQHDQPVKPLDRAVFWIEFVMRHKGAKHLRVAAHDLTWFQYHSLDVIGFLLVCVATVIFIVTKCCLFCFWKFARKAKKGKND
Description: Enzyme inhibition assay, UGT2B7. In kind it is in vitro ADME. On the set-up: from tissue. The following applies: HLM; UGT2B7 zidovudine glucuronidation.

For the next series, the system named is CYP1A2. Description: Enzyme induction assay, CYP1A2 activity in primary human hepatocytes. The series is classed as in vitro ADME. To be noted: plated cryopreserved primary human hepatocytes, O-deethylation.

Structures are written as SMILES.

Chain of CYP3A4 (P08684 whole entry): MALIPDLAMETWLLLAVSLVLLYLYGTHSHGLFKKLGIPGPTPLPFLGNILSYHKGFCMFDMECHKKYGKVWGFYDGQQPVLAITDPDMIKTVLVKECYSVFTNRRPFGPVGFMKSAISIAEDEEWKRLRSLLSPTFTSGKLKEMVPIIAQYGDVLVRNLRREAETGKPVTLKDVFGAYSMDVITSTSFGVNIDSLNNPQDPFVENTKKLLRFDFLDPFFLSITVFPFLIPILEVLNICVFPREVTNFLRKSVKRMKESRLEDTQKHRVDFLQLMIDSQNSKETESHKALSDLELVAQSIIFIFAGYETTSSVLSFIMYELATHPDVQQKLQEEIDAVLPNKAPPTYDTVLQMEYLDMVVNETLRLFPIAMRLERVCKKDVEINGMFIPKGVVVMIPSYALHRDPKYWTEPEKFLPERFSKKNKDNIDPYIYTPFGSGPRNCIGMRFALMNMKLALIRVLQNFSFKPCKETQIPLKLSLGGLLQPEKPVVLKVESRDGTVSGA

For `CCc1c2c(nc3ccc(O)cc13)-c1cc3c(c(=O)n1C2)COC(=O)[C@]3(O)CC` [SN38], the “Known Substrate (% Remaining at 60 min)” value at rUGT1A1 was “SN38 (74.87) %”. A word on the fold induction: it is the signal under treatment as a multiple of the control signal. In the case of `CCC1(c2ccccc2)C(=O)NC(=O)NC1=O` [Phenobarbital], the fold induction at 72 h, 303 nM in the series with CYP2B6 (donor HU2036, over negative control) is 7.63 ± 0.82; in the series on CYP2B6 (donor HU2068, over negative control), 6.43 ± 1.02; in the series on CYP2B6 (donor HU8373, over negative control) it was 10.7 ± 0.61. In general, IC50 refers to the concentration needed to halve the response being measured. On to `COC(=O)N[C@H](C(=O)N[C@@H](Cc1ccccc1)[C@@H](O)CN(Cc1ccc(-c2ccccn2)cc1)NC(=O)[C@@H](NC(=O)OC)C(C)(C)C)C(C)(C)C` [Atazanavir], for which, at UGT1A1, the IC50 turned out to be 110 nM. For orientation: amount remaining means the share of the starting amount still present when the sample was taken. On to `Cc1ncc2n1-c1ccc(Cl)cc1C(c1ccccc1F)=NC2` [Midazolam], for which, in [1], the share remaining at 1 h was 0%. Also, the fraction remaining at 1 h, 1 µM on CYP3A4 was found to be 4.02%. `CCC1(c2ccccc2)C(=O)NC(=O)N(Cc2ccccc2)C1=O` (single isomer, unassigned; (-)) [(-)-N-3-benzyl-phenobarbital] had an IC50 against CYP2C19 of 148 nM. Consider `O=C(O)c1cccnc1Nc1cccc(C(F)(F)F)c1` [Niflumic acid], for which half-maximal inhibition against UGT1A9 (IC50) was put at 150 nM. Take `Cc1nc2c([nH]1)c(=O)n(C)c(=O)n2Cc1ccco1` [Furafylline]: the IC50 on CYP1A1 was 4760 nM.

On to `O=c1cc(-c2ccc(O)c(-c3c(O)cc(O)c4c(=O)cc(-c5ccc(O)cc5)oc34)c2)oc2cc(O)cc(O)c12` [Amentoflavone], for which the IC50 amounted to 46.1 nM against UGT1A7 and 5570 nM against UGT1A8. The compound `C[C@@H]1CC[C@@]2(OC1)O[C@H]1C[C@H]3[C@@H]4CC[C@H]5C[C@@H](O)CC[C@]5(C)[C@H]4CC(=O)[C@]3(C)[C@H]1[C@@H]2C` [Hecogenin] displayed an IC50 against UGT1A4 of 960 nM.

Compound `OC(Cn1cncn1)(Cn1cncn1)c1ccc(F)cc1F` [Fluconazole] gave an IC50 against UGT2B7 of 712000 nM. In the case of `COc1ccc2[nH]c([S+]([O-])Cc3ncc(C)c(OC)c3C)nc2c1` (centres unmarked) [Omeprazole], the fold induction at 72 h, 303 nM is 14 ± 2.43 in the series with CYP1A2 (donor HU2036, probe phenacetin (100 µM)); 35.5 ± 2.03 with CYP1A2 (donor HU2068, probe phenacetin (100 µM)); 32.7 ± 6.67 in the series on CYP1A2 (donor HU8373, probe phenacetin (100 µM)).

Values taken from PMC8706783 (Pharmaceutics, 2021).
